Measured values published in US12065434B2, “Metabolites of GLP1R agonists” (Pfizer Inc., priority 2020, dated 2024).

Tests used:
mouse hepatocytes = test: In vitro metabolism of Compound 2 in mouse cryopreserved hepatocytes; format: in vitro ADME; set-up: key to Relative abundance of metabolite of Compound 2, Mouse: ND Not detected.; trace: Trace: observed by HPLC/MS measurements only.; + Minor as assessed by HPLC/UV measurements; ++ moderate as assessed by HPLC/UV measurements; +++ major as assessed by HPLC/UV measurements.; * m/z 593 and m/z 505 co-eluted in rabbit hepatocytes.; ** m/z 591 c and m/z 593 were merged in human hepatocytes and Hepatopack.; *** m/z 607 and m/z 751 b were merged in rabbit hepatocytes; settings: for metabolite of Compound 2 observed in mouse hepatocyte incubations: 10 μM Compound 2, 7.5×10^5 cells/mL, 1 and 4 hrs composite; for Relative abundance of metabolite of Compound 2, Mouse: mouse cryopreserved hepatocytes, HPLC/UV/MS
Procedure: (§1) Male CD-1 mouse hepatocytes (lot YHL), male Wistar-Han rat hepatocytes (Celsius; product number: M000065; lot: SLA), female New Zealand rabbit hepatocytes (lot 1510147), male cryopreserved cynomolgus monkey hepatocytes (Celsius; product number: M00305; lot: DNB) and mixed-gender cryopreserved human hepatocytes (Bioreclamation; product number: S01988; lot: DCM) were obtained for the hepatocyte in-vitro assessments.
(§2) At time 0 hrs 550 μL aliquots were removed from incubations and quenched with 5 volumes of ACN containing 0.1% formic acid. At 1 and 4 hrs, 275 μL aliquots were removed and quenched as above; these were combined in the same tube to prepare a composite sample. For all hepatocyte experiments, samples were processed by centrifugation at 1900×g for 5 minutes, and then the supernatant was transferred to clean glass tubes and evaporated to dryness under a stream of N2 using a Turbovap at 37° C. Sample residues were reconstituted in mobile phase prior to analysis by HPLC/UV/MS^n.
(§3) Samples were analyzed by HPLC/UV/MS^n using a Thermo Orbitrap Elite mass spectrometer in conjunction with a Thermo Open Accela UHPLC system. A 3.0×150 mm, 2.5 μm Acquity CSH C18 HPLC column (Waters) was heated to 45° C. for separation of analytes. The mobile phase was a gradient of A): water containing 0.1% formic acid, and B): acetonitrile. The flow rate was 450 μL/min, and the following gradient program was utilized: […]
(§4) UV absorbance was monitored with a photo-diode array detector from 220-450 nm. The mass spectrometer was operated in positive-ion mode with a HESI ion source at a potential of 3.0 kV, and capillary and source heater temperatures of 380 and 300° C., respectively. Sheath, auxiliary, and sweep gas flows were set to 45, 10, and 2 units, respectively. Full scan mass spectra were acquired over the range 120-1200 m/z at a resolving power of 30,000 (specified at m/z 400). Data-dependent MS^n spectra were acquired in an automated fashion at 15,000 resolving power using CID and HCD fragmentation with normalized collision energy settings of 28 and 65 V, respectively.
(§5) Metabolites were characterized by comparisons of mass spectral fragmentation patterns with that of a Compound 2 standard. All HPLC/UV/MS^n data were processed using Xcalibur v. 2.2, and integrated UV peak areas were subjected to weighted UV binning procedures utilizing an Excel template.

rat hepatocytes = test: In vitro metabolism of Compound 2 in rat cryopreserved hepatocytes; format: in vitro ADME; set-up: key to Relative abundance of metabolite of Compound 2, Rat: ND Not detected.; trace: Trace: observed by HPLC/MS measurements only.; + Minor as assessed by HPLC/UV measurements; ++ moderate as assessed by HPLC/UV measurements; +++ major as assessed by HPLC/UV measurements.; * m/z 593 and m/z 505 co-eluted in rabbit hepatocytes.; ** m/z 591 c and m/z 593 were merged in human hepatocytes and Hepatopack.; *** m/z 607 and m/z 751 b were merged in rabbit hepatocytes; settings: for metabolite of Compound 2 observed in rat hepatocyte incubations: 10 μM Compound 2, 7.5×10^5 cells/mL, 1 and 4 hrs composite; for Relative abundance of metabolite of Compound 2, Rat: rat cryopreserved hepatocytes, HPLC/UV/MS
Procedure: as §1, §2, §3, §4, §5

rabbit hepatocytes = test: In vitro metabolism of Compound 2 in rabbit cryopreserved hepatocytes; format: in vitro ADME; set-up: key to Relative abundance of metabolite of Compound 2, Rabbit: ND Not detected.; trace: Trace: observed by HPLC/MS measurements only.; + Minor as assessed by HPLC/UV measurements; ++ moderate as assessed by HPLC/UV measurements; +++ major as assessed by HPLC/UV measurements.; * m/z 593 and m/z 505 co-eluted in rabbit hepatocytes.; ** m/z 591 c and m/z 593 were merged in human hepatocytes and Hepatopack.; *** m/z 607 and m/z 751 b were merged in rabbit hepatocytes; settings: for metabolite of Compound 2 observed in rabbit hepatocyte incubations: 10 μM Compound 2, 7.5×10^5 cells/mL, 1 and 4 hrs composite; for Relative abundance of metabolite of Compound 2, Rabbit: rabbit cryopreserved hepatocytes, HPLC/UV/MS
Procedure: as §1, §2, §3, §4, §5

monkey hepatocytes = test: In vitro metabolism of Compound 2 in monkey cryopreserved hepatocytes; format: in vitro ADME, cynomolgus monkey; set-up: key to Relative abundance of metabolite of Compound 2, Monkey: ND Not detected.; trace: Trace: observed by HPLC/MS measurements only.; + Minor as assessed by HPLC/UV measurements; ++ moderate as assessed by HPLC/UV measurements; +++ major as assessed by HPLC/UV measurements.; * m/z 593 and m/z 505 co-eluted in rabbit hepatocytes.; ** m/z 591 c and m/z 593 were merged in human hepatocytes and Hepatopack.; *** m/z 607 and m/z 751 b were merged in rabbit hepatocytes; settings: for metabolite of Compound 2 observed in monkey hepatocyte incubations: 10 μM Compound 2, 7.5×10^5 cells/mL, 1 and 4 hrs composite; for Relative abundance of metabolite of Compound 2, Monkey: monkey cryopreserved hepatocytes, HPLC/UV/MS
Procedure: as §1, §2, §3, §4, §5

human hepatocytes = test: In vitro metabolism of Compound 2 in human cryopreserved hepatocytes; format: in vitro ADME; set-up: key to Relative abundance of metabolite of Compound 2, Human: ND Not detected.; trace: Trace: observed by HPLC/MS measurements only.; + Minor as assessed by HPLC/UV measurements; ++ moderate as assessed by HPLC/UV measurements; +++ major as assessed by HPLC/UV measurements.; * m/z 593 and m/z 505 co-eluted in rabbit hepatocytes.; ** m/z 591 c and m/z 593 were merged in human hepatocytes and Hepatopack.; *** m/z 607 and m/z 751 b were merged in rabbit hepatocytes; settings: for metabolite of Compound 2 observed in human hepatocyte incubations: 10 μM Compound 2, 7.5×10^5 cells/mL, 1 and 4 hrs composite; for Relative abundance of metabolite of Compound 2, Human: human cryopreserved hepatocytes, HPLC/UV/MS
Procedure: as §1, §2, §3, §4, §5

[1] = tested on: human co-cultured hepatocytes (Hepatopack); test: In vitro metabolism of Compound 2 in human micropatterned co-cultured hepatocytes (Hepatopack); format: in vitro ADME; set-up: key to Relative abundance of metabolite of Compound 2, Hepatopack: ND Not detected.; trace: Trace: observed by HPLC/MS measurements only.; + Minor as assessed by HPLC/UV measurements; ++ moderate as assessed by HPLC/UV measurements; +++ major as assessed by HPLC/UV measurements.; * m/z 593 and m/z 505 co-eluted in rabbit hepatocytes.; ** m/z 591 c and m/z 593 were merged in human hepatocytes and Hepatopack.; *** m/z 607 and m/z 751 b were merged in rabbit hepatocytes; settings: human co-cultured hepatocytes (Hepatopack); HPLC/UV/MS
Description: Micro-patterned co-cultured (MPCC) hepatocyte 24-well plates containing human donors (16 wells each) were provided by Ascendance Biotechnology (formerly Hepregen Corp. (Medford, MA). [see Wang W W W, Khetani S R, Krzyzewski S, et al. Assessment of a Micropatterned Hepatocyte Coculture System to Generate Major Human Excretory and Circulating Drug Metabolites. Drug Metab Dispos 2010; 38(10):1900-5.] The MPCCs were created at Ascendance Biotechnology and maintained in serum containing medium for 5-6 days to allow for stabilization of the co-cultures prior to shipment. A mixed-gender cryopreserved pool of 10 human donors (X008001-P; lot YFA) was used to seed the plates and was purchased from BioreclamationIVT (Westbury, NY). MPCC hepatocytes are plated with fibroblasts in a 1:3 ratio with ˜25,000 hepatocytes/well in a 24-well plate. 24-Well MPCC plates were shipped to Pfizer, fresh medium (400 μL/well) was applied and cultures were kept at 37° C. with […] and 95% relative humidity for two days. Micropatterned co-cultures containing pooled hepatocytes were allowed 7 days to fully stabilize with respect to liver-specific functions. […] At respective time points (0, 2, and 7 days), the culture medium was removed and mixed with 4 volumes of ACN, then stored frozen at −40° C. until samples could be analyzed. Samples were subsequently processed by the addition of 2.5 mL of 1:1 ACN:MeOH containing 0.1% formic acid. After vortexing, the samples were centrifuged at 1900×g for 5 min, then the supernatant was transferred to 15 mL conical tubes and evaporated under N2 using a Turbovap set at 37° C. The residues were reconstituted in mobile phase (5:95 v:v ACN:0.1% aqueous formic acid) prior to analysis by HPLC/UV/MS^n.
as §3
as §4, with “Data-dependent MS^n spectra were acquired in an automated fashion at 15,000 resolving power using CID and HCD fragmentation with normalized collision energy settings of 28 and 65 V, respectively.” left out

human GLP-1R [2] = target: T1, human GLP-1R (Homo sapiens, UniProt P43220, L260F); test: CHO GLP-1R Clone C6 - Assay 2 (HTRF cAMP agonist assay, low receptor density); format: cell-based; settings: CHO GLP-1R Clone C6 (low receptor density); for Emax: arithmetic mean, relative to 1 μM GLP-1
T1 construct: expressed in transfected cells
Procedure: GLP-1R-mediated agonist activity was determined with a cell-based functional assay utilizing an HTRF (Homogeneous Time-Resolved Fluorescence) cAMP detection kit (cAMP HI Range Assay Kit; Cis Bio cat #62AM6PEJ) that measures cAMP levels in the cell. The method is a competitive immunoassay between native cAMP produced by the cells and exogenous cAMP labeled with the dye d2. The tracer binding is visualized by a mAb anti-cAMP labeled with Cryptate. The specific signal (i.e. energy transfer) is inversely proportional to the concentration of cAMP in either a standard or an experimental sample.
The human GLP-1R coding sequence (NCBI Reference Sequence NP_002053.3, including naturally-occurring variant Leu260Phe) was subcloned into pcDNA5-FRT-TO and a clonal CHO cell line stably expressing a low receptor density was isolated using the Flp-In™ T-Rex™ System, as described by the manufacturer (ThermoFisher).
Cells were removed from cryopreservation, re-suspended in 40 mL of Dulbecco's Phosphate Buffered Saline (DPBS—Lonza Cat #17-512Q) and centrifuged at 800×g for 5 minutes at 22° C. The DPBS was aspirated, and the cell pellet was re-suspended in 10 mL of complete growth medium (DMEM:F12 1:1 Mixture with HEPES, L-Gln, 500 mL (DMEM/F12 Lonza Cat #12-719F), 10% heat inactivated fetal bovine serum (Gibco Cat #16140-071), 5 mL of 100× Pen-Strep (Gibco Cat #15140-122), 5 mL of 100× L-Glutamine (Gibco Cat #25030-081), 700 μg/mL Hygromycin (Invitrogen Cat #10687010) and 15 μg/mL Blasticidin (Gibco Cat #R21001). A 1 mL sample of the cell suspension in growth media was counted on a Becton Dickinson ViCell to determine cell viability and cell count per mL. The remaining cell suspension was then adjusted with growth media to deliver 1600 viable cells per well using a Matrix Combi Multidrop reagent dispenser, and the cells were dispensed into a white 384 well tissue culture treated assay plate (Corning 3570). The assay plate was then incubated for 48 hours at 37° C. in a humidified environment (95% O2, 5% CO2)
Varying concentrations of each compound to be tested (in DMSO) were diluted in assay buffer [HBSS with Calcium/Magnesium (Lonza/BioWhittaker cat #10-527F)/0.1% BSA (Sigma Aldrich cat #A7409-1L)/20 mM HEPES (Lonza/BioWhittaker cat #17-737E)] containing 100 μM 3-isobutyl-1-methylxanthin (IBMX; Sigma cat #15879). The final DMSO concentration in the compound/assay buffer mixture is 1%.
After 48 hours, the growth media was removed from the assay plate wells, and the cells were treated with 20 μL of the serially diluted compound in assay buffer for 30 minutes at 37° C. in a humidified environment (95% O2, 5% CO2). Following the 30 minute incubation, 10 μL of labeled d2 cAMP and 10 μL of anti-cAMP antibody (both diluted 1:20 in cell lysis buffer; as described in the manufacturer's assay protocol) were added to each well of the assay plate. The plates were then incubated at room temperature and after 60 minutes, changes in the HTRF signal were read with an Envision 2104 multi-label plate reader using excitation of 330 nm and emissions of 615 and 665 nm. Raw data were converted to nM cAMP by interpolation from a cAMP standard curve (as described in the manufacturer's assay protocol) and the percent effect was determined relative to a saturating concentration of the full agonist GLP-1 (1 μM) included on each plate. EC50 determinations were made from agonist dose response curves analyzed with a curve fitting program using a 4-parameter logistic dose response equation.

human GLP-1R [3] = target: human GLP-1R (Homo sapiens, UniProt P43220); test: CHO GLP-1R Clone H6 - Assay 1 (HTRF cAMP agonist assay)
Procedure: (§8) GLP-1R-mediated agonist activity was determined with a cell-based functional assay utilizing an HTRF (Homogeneous Time-Resolved Fluorescence) cAMP detection kit (cAMP HI Range Assay Kit; CisBio cat #62AM6PEJ) that measures cAMP levels in the cell. The method is a competitive immunoassay between native cAMP produced by the cells and exogenous cAMP labeled with the dye d2. The tracer binding is visualized by a mAb anti-cAMP labeled with Cryptate. The specific signal (i.e. energy transfer) is inversely proportional to the concentration of cAMP in either standard or experimental sample.
(§9) The human GLP-1R coding sequence (NCBI Reference Sequence NP_002053.3, including naturally-occurring variant Gly168Ser) was subcloned into pcDNA3 (Invitrogen) and a cell line stably expressing the receptor was isolated (designated Clone H6).
(§10) Cells were removed from cryopreservation, re-suspended in 40 mL of Dulbecco's Phosphate Buffered Saline (DPBS—Lonza Cat #17-512Q) and centrifuged at 800×g for 5 minutes at 22° C. The cell pellet was then re-suspended in 10 mL of growth medium [DMEM/F12 1:1 Mixture with HEPES, L-Gln, 500 mL (DMEM/F12 Lonza Cat #12-719F), 10% heat inactivated fetal bovine serum (Gibco Cat #16140-071), 5 mL of 100× Pen-Strep (Gibco Cat #15140-122), 5 mL of 100× L-Glutamine (Gibco Cat #25030-081) and 500 μg/mL Geneticin (G418) (Invitrogen #10131035)]. A 1 mL sample of the cell suspension in growth media was counted on a Becton Dickinson ViCell to determine cell viability and cell count per mL. The remaining cell suspension was then adjusted with growth media to deliver 2000 viable cells per well using a Matrix Combi Multidrop reagent dispenser, and the cells were dispensed into a white 384 well tissue culture treated assay plate (Corning 3570). The assay plate was then incubated for 48 hours at 37° C. in a humidified environment in 5% carbon dioxide.
(§11) Varying concentrations of each compound to be tested (in DMSO) were diluted in assay buffer (HBSS with Calcium/Magnesium (Lonza/BioWhittaker cat #10-527F)/0.1% BSA (Sigma Aldrich cat #A7409-1L)/20 mM HEPES (Lonza/BioWhittaker cat #17-737E) containing 100 μM 3-isobutyl-1-methylxanthin (IBMX; Sigma cat #15879). The final DMSO concentration is 1%.
(§12) After 48 hours, the growth media was removed from the assay plate wells, and the cells were treated with 20 μL of the serially diluted compound in assay buffer for 30 minutes at 37° C. in a humidified environment in 5% carbon dioxide. Following the 30 minute incubation, 10 μL of labeled d2 cAMP and 10 μL of anti-cAMP antibody (both diluted 1:20 in cell lysis buffer; as described in the manufacturer's assay protocol) were added to each well of the assay plate. The plates were then incubated at room temperature and after 60 minutes, changes in the HTRF signal were read with an Envision 2104 multi-label plate reader using excitation of 330 nm and emissions of 615 and 665 nm. Raw data were converted to nM cAMP by interpolation from a cAMP standard curve (as described in the manufacturer's assay protocol) and the percent effect was determined relative to a saturating concentration of the full agonist GLP-17-36 (1 μM) included on each plate. EC50 determinations were made from agonist dose-response curves analyzed with a curve fitting program using a 4-parameter logistic dose response equation.

human GLP-1R [4] = target: human GLP-1R (Homo sapiens, UniProt P43220, G168S); test: as above; settings: read-out: Assay 1 Emax (%)
Procedure: as §8, §9, §10, §11, §12

[5] = Metabolite profiling of pooled human plasma after repeat oral dosing of Compound 1 (HPLC/UV/MS)
Procedure: Plasma samples from nine human subjects following oral administration of 120 mg BID for 28 days in a clinical study were examined for metabolites.
Individual subject's plasma (from nine human subjects with 120 mg BID dose Day 28) were pooled in proportion to the time period represented by each to yield a pool for profiling that was representative of the AUC (0-12 hr) according to the method of Hamilton et al. [Hamilton R A, Garnett W R, Kline B J. Determination of a mean valproic acid serum level by assay of a single pooled sample. […] Pooled plasma time points were first prepared by aliquoting equal amounts (1.0 mL) of plasma from each subject prior to making a single Hamilton pool. Blank plasma pools were made by taking equal aliquots of predose samples. To a 2 mL aliquot of each pooled plasma sample was added 6 mL of acetonitrile and then mixed. Protein precipitated samples were centrifuged for 5 minutes at 2000×g and the supernatants were transferred to other clean 15 mL centrifuge tubes. Samples were dried using an evaporative centrifuge set to 37° C. Samples were reconstituted using 0.2 mL of 5:95 acetonitrile:water and analyzed by HPLC/UV/MS.
Reconstituted samples were analyzed by positive ion HPLC/UV/MS using a Thermo Orbitrap Elite mass spectrometer operating in positive ion electrospray mode. Xcalibur software version 3.0.63 was used to control the HPLC/UV/MS system. Full scan data were collected at 15,000 resolution. Data dependent product ion scans of the two most intense ions found in the full scan were obtained at 15,000 resolution. The dynamic exclusion function was used with a 10 second exclusion duration after 3 successive product ion scans with an early exclusion if the precursor ion fell below a signal to noise ratio of 20. The HPLC system consisted of an Accela quaternary solvent delivery pump, an Accela autoinjector, an Accela PDA Plus photodiode array detector (Thermo Electron Corporation). Chromatography was performed on a Phenomenex Kinetex column (2.1 mm×100 mm, 2.6 μm) at 45° C. using a HotSleeve column heater (Analytical Sales and Services). The mobile phase was composed of 0.1% formic acid in water (solvent A) and acetonitrile (solvent B). The solvent delivery gradient program was as follows:

[6] = Circulating metabolites of Compound 2 in rat plasma following a 1.0 mg/kg IV bolus dose; format: in vivo; settings: 1.0 mg/kg IV bolus dose of Compound 2, pooled 0.033-24 hrs
Procedure: (§6) Plasma and bile samples were obtained from a bile duct cannulated rat experiment (Study PK-0111) in which a 1.0 mg/kg IV bolus dose was administered to fed male rats (N=3). No control plasma was available from this experiment.
Clin Pharmacol Ther 1981; 29(3):408-13]. The entire volume of each replicate Hamilton pool was combined to create a single pooled sample (576 μL) for analysis.
(§7) Pooled plasma and bile samples were extracted with ACN containing 0.1% formic acid, and after centrifugation at 1900×g, the supernatant was transferred to clean tubes and evaporated under N2 in a Turbovap set at 37° C. Residues were reconstituted in mobile phase (5:95 v:v ACN:0.1% aqueous formic acid) prior to analysis by HPLC/UV/MS^n.
as §3, §4, §5

[7] = Metabolites of Compound 2 in rat bile following a 1.0 mg/kg IV bolus dose; format: in vivo; settings: 1.0 mg/kg IV bolus dose of Compound 2, bile duct cannulated rats, pooled 0-24 hrs
Procedure: as §6
Bile samples (0-3, 3-7, and 7-24 hrs) from individual animals were pooled in proportion to the amount collect in each interval. Then 0.5 mL of each individual pool was combined to prepare a composite sample for analysis.
as §7, §3, §4, §5

T1 sequence (P43220 24-463 L260F): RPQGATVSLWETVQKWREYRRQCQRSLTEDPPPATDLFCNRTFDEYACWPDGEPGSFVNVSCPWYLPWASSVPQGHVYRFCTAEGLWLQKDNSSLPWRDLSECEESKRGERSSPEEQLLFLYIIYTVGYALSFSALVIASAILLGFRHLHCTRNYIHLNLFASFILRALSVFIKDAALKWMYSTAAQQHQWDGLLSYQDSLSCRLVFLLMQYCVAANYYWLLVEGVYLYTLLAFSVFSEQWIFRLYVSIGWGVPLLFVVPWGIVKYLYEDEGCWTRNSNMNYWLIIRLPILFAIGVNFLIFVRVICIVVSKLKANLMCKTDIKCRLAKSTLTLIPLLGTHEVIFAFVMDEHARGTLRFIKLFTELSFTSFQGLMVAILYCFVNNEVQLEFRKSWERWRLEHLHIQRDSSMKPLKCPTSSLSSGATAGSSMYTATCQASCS
Chain of human GLP-1R (Homo sapiens, UniProt P43220, G168S) (P43220 24-463 G168S): as the sequence (P43220 24-463 L260F) above, with G145S, F237L counted along it
Chain of human GLP-1R (Homo sapiens, UniProt P43220) (P43220 24-463 G168S): as the sequence (P43220 24-463 L260F) above, with G145S, F237L counted along it

metabolite of Compound 2 observed in mouse hepatocyte incubations (mouse hepatocytes) | Relative abundance of metabolite of Compound 2, Mouse (mouse hepatocytes) | metabolite of Compound 2 observed in rat hepatocyte incubations (rat hepatocytes) | Relative abundance of metabolite of Compound 2, Rat (rat hepatocytes) | metabolite of Compound 2 observed in rabbit hepatocyte incubations (rabbit hepatocytes) | Relative abundance of metabolite of Compound 2, Rabbit (rabbit hepatocytes) | metabolite of Compound 2 observed in monkey hepatocyte incubations (monkey hepatocytes) | Relative abundance of metabolite of Compound 2, Monkey (monkey hepatocytes) | metabolite of Compound 2 observed in human hepatocyte incubations (human hepatocytes) | Relative abundance of metabolite of Compound 2, Human (human hepatocytes) | Relative abundance of metabolite of Compound 2, Hepatopack [1] | Emax (human GLP-1R [2]) | EC50 (human GLP-1R [2]; geometric mean) | EC50 (human GLP-1R [3]) | Emax (human GLP-1R [4]) | observed as major or minor metabolite in human plasma ([5]; Compound 1 120 mg BID, Day 28) | Plasma Extracts ([5]; Compound 1 120 mg oral BID, Day 28, HPLC/UV/MS) | detected in rat plasma [6] | detected in rat bile [7] | Compound
observed in all hepatocyte incubations | + | observed in all hepatocyte incubations | trace | observed in all hepatocyte incubations | +++ | observed in all hepatocyte incubations | + | observed in all hepatocyte incubations | ** | ** | – | – | – | – | – | – | – | – | C[C@]1(c2ccc(Cl)cn2)Oc2cccc(C3CCN(Cc4nc5ccc(C(=O)O)cc5n4CC(O)CCO)CC3)c2O1 (stereo in doubt) [Metabolite 593]
– | – | – | – | – | – | – | – | – | – | – | 98% | 2.5 µM | 0.13 µM | 114% | minor metabolite | + | – | – | N#Cc1ccc(COc2cccc(C3CCN(Cc4nc5ccc(C(=O)O[C@@H]6O[C@H](C(=O)O)[C@@H](O)[C@H](O)[C@H]6O)cc5n4C[C@@H]4CCO4)CC3)n2)c(F)c1 [Compound M1, (2S,3S,4S,5R,6S)-6-((2-((4-(6-((4-cyano-2-fluorobenzyl)oxy)pyridin-2-yl)piperidin-1-yl)methyl)-1-(((S)-oxetan-2-yl)methyl)-1H-benzo[d]imidazole-6-carbonyl)oxy)-3,4,5-trihydroxytetrahydro-2H-pyran-2-carboxylic acid]
observed in all hepatocyte incubations | + | observed in all hepatocyte incubations | trace | observed in all hepatocyte incubations | + | observed in all hepatocyte incubations | trace | observed in all hepatocyte incubations | + | + | – | – | – | – | – | – | – | – | C[C@]1(c2ccc(Cl)cn2)Oc2cccc(-c3cc[n+](Cc4nc5ccc(C(=O)O)cc5n4C[C@@H]4CCO4)cc3)c2O1 [Metabolite 569]
– | – | – | – | – | – | – | – | – | – | – | 96% | – | – | 99% | – | – | detected | detected | C[C@]1(c2ccc(Cl)cn2)Oc2cccc(C3CCN(Cc4nc5ccc(C(=O)O)cc5n4C[C@@H]4CCO4)CC3)c2O1 [Compound 2, 2-((4-((S)-2-(5-chloropyridin-2-yl)-2-methylbenzo[d][1,3]dioxol-4-yl)piperidin-1-yl)methyl)-1-(((S)-oxetan-2-yl)methyl)-1H-benzo[d]imidazole-6-carboxylic acid]
